Earlier results as cited in US10010502B2, “Device that delivers a sustained low-dose of a myopia-suppressing drug, while preserving pupillary function and accommodation” (AMORPHEX THERAPEUTICS LLC, priority 2015, dated 2018).
Entries after “also recorded” stand apart in the source; their conditions may differ.

Assays:
myopia progression [1] = test system: myopia progression
[2] = test system: muscarinic receptors of the pupil and ciliary body
childhood myopia = details: 68 myopic children, oral dose of 400 mg
myopia progression [3] = test system: myopia progression; remark: listed apart in the source

N[C@@H](Cc1ccc(O)c(O)c1)C(=O)O [levodopa]
myopia progression in animal models (myopia progression [1]): retard myopia progression

CN1CCN(CC(=O)N2c3ccccc3C(=O)Nc3cccnc32)CC1 [pirenzepine]
activity at muscarinic receptors of the pupil and ciliary body relative to atropine [2]: less active at the muscarinic receptors of the pupil and ciliary body than atropine

Cn1cnc2[nH]c(=O)[nH]c(=O)c21 [7-methylxanthine]
eye elongation and myopia progression (childhood myopia): reduce eye elongation and myopia progression
safety / adverse effects (childhood myopia): safe and without side effects; also recorded: no reported adverse effects

CN1CCc2cccc3c2[C@H]1Cc1ccc(O)c(O)c1-3 [apomorphine]
myopia progression in animal models (myopia progression [1]): retard myopia progression

CN1[C@@H]2CC[C@H]1C[C@@H](OC(=O)C(CO)c1ccccc1)C2 (some centres unmarked) [atropine]
glare symptoms (myopia progression [3]; 0.01% drops): some mild glare symptoms
visual acuity, quality of life, reading speed (myopia progression [3]; 0.01% drops): no decrease in visual acuity, quality of life or reading speed
myopia progression (myopia progression [3]; eye drop concentrations of 0.5% and 1.0%): ≤ 0.2 diopters/year
increase in pupil size easily tolerated by children (myopia progression [3]; lower dose atropine drops, normal light conditions): 1 mm
effect on myopia progression (myopia progression [3]; lowest dose eye drops studied, 0.01%): less-than-optimal but measureable effect
duration of dilation after one drop (myopia progression [3]; one eye drop): several days or even a week or more
